Data: patent US11639412B2, “Acute care cover for severe injuries” (priority 2016, dated 2023)

Test system: Staphylococcus aureus
Assay: Zone of inhibition assay
Assay type: cell-based
Settings: 37° C. for 72 hours
Procedure: Zone-of-inhibition and Drug Delivery Assay—Antimicrobial activity of ciprofloxacin- and tetracycline-loaded polyHIPEs was assessed through a zone of inhibition assay. […] The polyHIPE discs were incubated in the drug solutions at room temperature overnight. Prior to being frozen and lyophilized, the discs were briefly rinsed with methanol. A plate of Staphylococcus aureus was streaked using cells from frozen stocks; single colonies, selected from the plate, were then used to inoculate 10 mL of liquid LB media, which were cultured overnight at 37° C. The starter cultures were diluted with fresh LB to an OD600 of approximately 1.1 before being further diluted in 1:5 ratio of culture to fresh, liquid LB media. To inoculate LB agar plates, 250 μL of the diluted culture was spread evenly across the surface of the plates, which were then incubated for 30 minutes at 37° C. The LB plates were then removed from the incubator and divided into 4 quadrants with the drug-loaded or control polyHIPE discs placed in the center of each quadrant. The plates were then returned to the incubator and cultured for approximately 24 hours. Following the 24-hour period of incubation, the plates were removed, photographed next to a standard ruler and the polyHIPEs transferred to a freshly inoculated plate which was incubated for another 24 hours. […]

SMILES: O=C(O)c1cn(C2CC2)c2cc(N3CCNCC3)c(F)cc2c1=O [ciprofloxacin]
- antibiotic activity within polyHIPEs after incubation: not diminished
